From ChEMBL document CHEMBL5649167, “The SUV4-20 inhibitor A-196 verifies a role for epigenetics in genomic integrity” (Nat Chem Biol, 2017)
The source made the active and inactive calls. The rule behind the calls is not given here.

How the values were obtained:
[1] = target: Sodium-dependent serotonin transporter (Homo sapiens) (UniProt P31645); test: Inhibition of human SERT expressed in stable HEK cells at 10 uM relative to control; assay type: cell-based
[2] = target: Histone-lysine N-methyltransferase KMT5B (Homo sapiens) (UniProt Q4FZB7); test: Inhibition of recombinant human 6His-(Tev)-G-SUV420H1 (69 to 335 residues) using Biotin-tagged H4K20me1 and [3H-SAM] as substrate at 1 uM incubated for 2 hrs by scintillation proximity assay
Sequence of Histone-lysine N-methyltransferase KMT5B (Homo sapiens) (Q4FZB7 whole entry, looked up, the tested form may be a part): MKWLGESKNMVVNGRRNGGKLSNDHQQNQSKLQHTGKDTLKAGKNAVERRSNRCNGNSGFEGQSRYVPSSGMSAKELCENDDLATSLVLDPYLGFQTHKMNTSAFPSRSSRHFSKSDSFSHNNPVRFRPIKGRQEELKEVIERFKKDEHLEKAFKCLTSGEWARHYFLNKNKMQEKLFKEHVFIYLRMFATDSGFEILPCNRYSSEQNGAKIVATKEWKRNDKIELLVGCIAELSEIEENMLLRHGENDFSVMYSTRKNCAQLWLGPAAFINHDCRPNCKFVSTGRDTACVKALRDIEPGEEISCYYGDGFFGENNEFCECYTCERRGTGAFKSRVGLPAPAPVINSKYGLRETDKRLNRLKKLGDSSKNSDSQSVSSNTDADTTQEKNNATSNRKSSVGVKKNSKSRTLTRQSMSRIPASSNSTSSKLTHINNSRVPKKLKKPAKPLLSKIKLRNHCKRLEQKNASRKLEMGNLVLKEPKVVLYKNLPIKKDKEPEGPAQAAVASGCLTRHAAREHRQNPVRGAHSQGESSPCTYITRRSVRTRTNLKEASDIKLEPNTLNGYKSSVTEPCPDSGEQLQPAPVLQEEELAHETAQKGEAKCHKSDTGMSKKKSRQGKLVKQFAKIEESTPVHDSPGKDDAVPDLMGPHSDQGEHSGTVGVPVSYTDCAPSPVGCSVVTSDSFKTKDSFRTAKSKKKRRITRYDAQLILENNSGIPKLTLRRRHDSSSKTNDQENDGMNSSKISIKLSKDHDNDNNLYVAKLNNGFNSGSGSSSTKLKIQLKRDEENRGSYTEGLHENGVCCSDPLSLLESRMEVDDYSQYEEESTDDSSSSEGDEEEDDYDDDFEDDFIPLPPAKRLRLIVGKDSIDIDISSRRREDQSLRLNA

U2OS [3] = test: Induction of DNA repair in human U2OS cells expressing I-SceI reporter assessed as increase in H4K20me1 level by Western blot analysis; assay type: functional, cell-based
[4] = target: RAF proto-oncogene serine/threonine-protein kinase (Homo sapiens) (UniProt P04049); test: Inhibition of human RAF-1 at 10 uM relative to control
[5] = target: Mitogen-activated protein kinase 8 (Homo sapiens) (UniProt P45983); test: Inhibition of human JNK1 at 10 uM relative to control
MEF = test: Antiproliferative activity against mouse MEF cells assessed as increase in H4K20me1 level at 10 uM incubated for 3 days by immunofluorescence analysis; assay type: functional, cell-based; conditions: time 3.0 day
[6] = target: Histone-lysine N-methyltransferase EHMT2 (Homo sapiens) (UniProt Q96KQ7); test: Inhibition of G9a (unknown origin) using Biotin-tagged H4K20me1 and [3H-SAM] as substrate at 1 to 10 uM incubated for 2 hrs by scintillation proximity assay; conditions: dose 1-10 µM
Sequence of Histone-lysine N-methyltransferase EHMT2 (Homo sapiens) (Q96KQ7 whole entry): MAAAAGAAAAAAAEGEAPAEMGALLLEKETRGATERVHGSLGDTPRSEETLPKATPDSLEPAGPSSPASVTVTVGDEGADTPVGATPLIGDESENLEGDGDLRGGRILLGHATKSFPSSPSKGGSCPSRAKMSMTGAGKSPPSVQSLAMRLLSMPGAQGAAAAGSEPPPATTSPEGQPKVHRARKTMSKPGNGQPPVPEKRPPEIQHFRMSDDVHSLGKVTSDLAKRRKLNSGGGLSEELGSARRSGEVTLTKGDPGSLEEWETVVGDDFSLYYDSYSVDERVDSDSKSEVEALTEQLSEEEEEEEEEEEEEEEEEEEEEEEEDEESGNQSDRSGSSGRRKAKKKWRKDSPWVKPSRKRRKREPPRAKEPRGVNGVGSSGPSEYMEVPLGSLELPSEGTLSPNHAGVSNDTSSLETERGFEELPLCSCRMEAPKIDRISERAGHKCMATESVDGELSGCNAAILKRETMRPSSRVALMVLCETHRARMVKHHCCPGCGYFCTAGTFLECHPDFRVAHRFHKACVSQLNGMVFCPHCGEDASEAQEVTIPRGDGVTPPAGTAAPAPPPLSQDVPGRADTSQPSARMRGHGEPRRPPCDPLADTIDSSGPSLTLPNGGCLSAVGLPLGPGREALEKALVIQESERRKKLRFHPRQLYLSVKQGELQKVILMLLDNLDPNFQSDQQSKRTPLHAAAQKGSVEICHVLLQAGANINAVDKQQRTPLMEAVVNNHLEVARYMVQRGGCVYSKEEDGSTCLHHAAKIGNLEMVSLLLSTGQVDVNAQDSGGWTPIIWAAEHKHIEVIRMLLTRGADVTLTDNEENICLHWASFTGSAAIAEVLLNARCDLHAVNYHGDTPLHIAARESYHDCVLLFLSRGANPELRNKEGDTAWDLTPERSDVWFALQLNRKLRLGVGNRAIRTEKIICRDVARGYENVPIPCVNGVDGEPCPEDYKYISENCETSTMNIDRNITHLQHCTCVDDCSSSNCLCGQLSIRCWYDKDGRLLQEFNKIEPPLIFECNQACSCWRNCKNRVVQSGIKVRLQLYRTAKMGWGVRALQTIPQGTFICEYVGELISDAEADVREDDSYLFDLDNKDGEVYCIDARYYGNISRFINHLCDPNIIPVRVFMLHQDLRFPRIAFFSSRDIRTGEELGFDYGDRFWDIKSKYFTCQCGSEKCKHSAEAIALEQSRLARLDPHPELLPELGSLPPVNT

[7] = target: Protein arginine N-methyltransferase 6 (Homo sapiens) (UniProt Q96LA8); test: Inhibition of PRMT6 (unknown origin) using Biotin-tagged H4K20me1 and [3H-SAM] as substrate at 1 to 10 uM incubated for 2 hrs by scintillation proximity assay; conditions: dose 1-10 µM
Sequence of Protein arginine N-methyltransferase 6 (Homo sapiens) (Q96LA8 whole entry, looked up): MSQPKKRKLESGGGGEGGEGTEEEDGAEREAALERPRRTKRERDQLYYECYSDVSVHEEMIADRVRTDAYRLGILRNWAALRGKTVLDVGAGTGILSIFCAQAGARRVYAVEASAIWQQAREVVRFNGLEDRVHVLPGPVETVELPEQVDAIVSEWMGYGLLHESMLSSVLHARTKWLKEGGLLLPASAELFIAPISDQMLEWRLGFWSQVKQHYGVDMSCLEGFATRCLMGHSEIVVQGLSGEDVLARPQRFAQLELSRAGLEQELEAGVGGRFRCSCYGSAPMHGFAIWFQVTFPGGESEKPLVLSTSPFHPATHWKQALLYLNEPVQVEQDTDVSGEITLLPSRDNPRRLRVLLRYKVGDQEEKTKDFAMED

LNCaP = test: Cytotoxicity against human LNCaP cells assessed as cell viability upto 12.5 uM incubated for 48 hrs; assay type: functional, cell-based
[8] = target: D(1B) dopamine receptor (Homo sapiens) (UniProt P21918); test: Inhibition of human D(5) dopamine receptor expressed in HEK293T cells at 10 uM relative to control; assay type: cell-based
Sequence of D(1B) dopamine receptor (Homo sapiens) (P21918 whole entry): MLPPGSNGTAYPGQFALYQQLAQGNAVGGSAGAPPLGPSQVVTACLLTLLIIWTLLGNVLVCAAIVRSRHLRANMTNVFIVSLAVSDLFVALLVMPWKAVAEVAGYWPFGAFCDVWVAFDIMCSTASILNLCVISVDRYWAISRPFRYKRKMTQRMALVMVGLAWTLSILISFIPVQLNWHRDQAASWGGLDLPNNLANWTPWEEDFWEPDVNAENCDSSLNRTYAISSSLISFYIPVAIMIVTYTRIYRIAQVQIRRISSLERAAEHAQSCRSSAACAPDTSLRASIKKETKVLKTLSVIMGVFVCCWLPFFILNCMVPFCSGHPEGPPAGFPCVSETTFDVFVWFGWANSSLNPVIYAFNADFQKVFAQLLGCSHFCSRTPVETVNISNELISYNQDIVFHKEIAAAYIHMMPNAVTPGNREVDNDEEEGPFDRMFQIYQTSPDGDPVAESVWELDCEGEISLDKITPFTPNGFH

U2OS [9] = test: Cytotoxicity against human U2OS cells assessed as cell viability upto 12.5 uM incubated for 48 hrs; assay type: functional, cell-based
[10] = target: High affinity nerve growth factor receptor (Homo sapiens) (UniProt P04629); test: Inhibition of human TRKA at 10 uM relative to control
[11] = target: Serine/threonine-protein kinase PAK 2 (Homo sapiens) (UniProt Q13177); test: Inhibition of human PAK2 at 10 uM relative to control
HeLa = test: Antiproliferative activity against human HeLa cells assessed as cell population doubling at 1 uM incubated for 80 days; assay type: functional, cell-based; conditions: time 80.0 day
[12] = target: Protein arginine N-methyltransferase 8 (Homo sapiens) (UniProt Q9NR22); test: Inhibition of PRMT8 (unknown origin) using Biotin-tagged H4K20me1 and [3H-SAM] as substrate at 1 to 10 uM incubated for 2 hrs by scintillation proximity assay; conditions: dose 1-10 µM
[13] = target: Sodium-dependent dopamine transporter (Homo sapiens) (UniProt Q01959); test: Inhibition of human DAT in stable HEK cells at 10 uM relative to control; assay type: cell-based
[14] = target: Histone-lysine N-methyltransferase KMT5B (Homo sapiens) (UniProt Q4FZB7); test: Binding affinity to recombinant human 6His-(Tev)-G-SUV420H1 (69 to 335 residues) assessed as increase thermal stability by measuring change in melting temperature at 50 uM in the presence of SAM by thermal shift assay
U2OS [15] = test: Antiproliferative activity against human U2OS cells assessed as inhibition in H4K20me2 expression level 21 doublings by Western blot analysis; assay type: functional, cell-based
U2OS [16] = test: Antiproliferative activity against human U2OS cells assessed as inhibition in H4K20me3 expression level 21 doublings by Western blot analysis; assay type: functional, cell-based
[17] = target: Serine/threonine-protein kinase Sgk1 (Homo sapiens) (UniProt O00141); test: Inhibition of human SGK1 at 10 uM relative to control
Sequence of Serine/threonine-protein kinase Sgk1 (Homo sapiens) (O00141 whole entry): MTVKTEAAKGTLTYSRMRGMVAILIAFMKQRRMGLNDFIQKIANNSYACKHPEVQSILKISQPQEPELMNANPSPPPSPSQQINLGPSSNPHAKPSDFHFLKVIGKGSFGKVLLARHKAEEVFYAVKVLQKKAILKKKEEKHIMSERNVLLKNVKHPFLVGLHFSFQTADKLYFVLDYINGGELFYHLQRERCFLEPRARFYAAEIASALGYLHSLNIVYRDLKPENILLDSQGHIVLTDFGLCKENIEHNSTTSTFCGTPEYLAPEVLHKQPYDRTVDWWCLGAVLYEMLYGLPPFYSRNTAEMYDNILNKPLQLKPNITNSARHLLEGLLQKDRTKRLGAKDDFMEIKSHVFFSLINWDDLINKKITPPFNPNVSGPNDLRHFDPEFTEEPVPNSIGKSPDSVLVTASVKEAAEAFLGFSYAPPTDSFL

[18] = target: Histone-lysine N-methyltransferase 2C (Homo sapiens) (UniProt Q8NEZ4); test: Inhibition of MLL3 (unknown origin) using Biotin-tagged H4K20me1 and [3H-SAM] as substrate at 1 to 10 uM incubated for 2 hrs by scintillation proximity assay; conditions: dose 1-10 µM
[19] = target: Histone-lysine N-methyltransferase PRDM9 (Homo sapiens) (UniProt Q9NQV7); test: Inhibition of PRDM9 (unknown origin) using Biotin-tagged H4K20me1 and [3H-SAM] as substrate at 1 to 10 uM incubated for 2 hrs by scintillation proximity assay; conditions: dose 1-10 µM
[20] = target: Serine/threonine-protein kinase PLK1 (Homo sapiens) (UniProt P53350); test: Inhibition of human PLK1 at 10 uM relative to control
[21] = target: Insulin receptor (Homo sapiens) (UniProt P06213); test: Inhibition of human IRK at 10 uM relative to control
[22] = target: 5-hydroxytryptamine receptor 1B (Homo sapiens) (UniProt P28222); test: Inhibition of human 5-hydroxytryptamine receptor 1B at 10 uM relative to control
Sequence of 5-hydroxytryptamine receptor 1B (Homo sapiens) (P28222 whole entry): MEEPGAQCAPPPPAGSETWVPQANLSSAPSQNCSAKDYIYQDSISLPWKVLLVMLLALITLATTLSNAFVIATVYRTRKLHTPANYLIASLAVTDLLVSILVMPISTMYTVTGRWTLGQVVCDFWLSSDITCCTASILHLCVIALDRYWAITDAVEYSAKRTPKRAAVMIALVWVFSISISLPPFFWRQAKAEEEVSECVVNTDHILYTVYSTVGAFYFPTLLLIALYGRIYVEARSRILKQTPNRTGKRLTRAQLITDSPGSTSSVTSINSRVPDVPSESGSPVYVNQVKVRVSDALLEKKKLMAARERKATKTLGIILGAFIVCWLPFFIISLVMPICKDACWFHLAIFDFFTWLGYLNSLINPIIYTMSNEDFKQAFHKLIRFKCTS

[23] = target: Histone-lysine N-methyltransferase EZH2 (Homo sapiens) (UniProt Q15910); test: Inhibition of EZH2 (unknown origin) using Biotin-tagged H4K20me1 and [3H-SAM] as substrate at 1 to 10 uM incubated for 2 hrs by scintillation proximity assay; conditions: dose 1-10 µM
Sequence of Histone-lysine N-methyltransferase EZH2 (Homo sapiens) (Q15910 whole entry, looked up): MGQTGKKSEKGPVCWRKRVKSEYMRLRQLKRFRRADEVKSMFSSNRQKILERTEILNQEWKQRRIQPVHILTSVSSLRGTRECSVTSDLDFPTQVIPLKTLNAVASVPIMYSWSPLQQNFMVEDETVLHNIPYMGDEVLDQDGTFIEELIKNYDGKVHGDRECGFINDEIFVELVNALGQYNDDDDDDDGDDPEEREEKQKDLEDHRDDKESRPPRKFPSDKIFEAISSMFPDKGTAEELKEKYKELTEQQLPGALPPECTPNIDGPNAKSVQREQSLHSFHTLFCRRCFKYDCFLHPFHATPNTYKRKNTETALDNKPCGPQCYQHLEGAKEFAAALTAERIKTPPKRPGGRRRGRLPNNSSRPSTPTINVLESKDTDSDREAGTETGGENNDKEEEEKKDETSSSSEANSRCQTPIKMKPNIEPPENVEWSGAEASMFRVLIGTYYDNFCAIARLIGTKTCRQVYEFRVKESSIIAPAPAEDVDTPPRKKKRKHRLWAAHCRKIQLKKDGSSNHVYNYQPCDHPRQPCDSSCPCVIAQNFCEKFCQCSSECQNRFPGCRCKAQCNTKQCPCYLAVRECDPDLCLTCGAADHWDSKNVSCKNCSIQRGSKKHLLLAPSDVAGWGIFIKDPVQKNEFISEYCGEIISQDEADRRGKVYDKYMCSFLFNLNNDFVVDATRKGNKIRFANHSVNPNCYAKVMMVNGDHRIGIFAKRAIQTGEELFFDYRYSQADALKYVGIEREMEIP

U2OS [24] = test: Inhibition of colony formation in human U2OS cells at 1 uM incubated for 48 hrs in the presence of olaparib by cell clonogenic assay; assay type: functional, cell-based
[25] = target: RAC-alpha serine/threonine-protein kinase (Homo sapiens) (UniProt P31749); test: Inhibition of human Akt1 at 10 uM relative to control
U2OS [26] = test: Inhibition of colony formation in human U2OS cells at 1 uM incubated for 48 hrs in the presence of hydroxyurea by cell clonogenic assay; assay type: functional, cell-based
[27] = target: Mitogen-activated protein kinase 1 (Homo sapiens) (UniProt P28482); test: Inhibition of human ERK2 at 10 uM relative to control
Homo sapiens [28] = species on record: Homo sapiens; test: Inhibition of DNMT3B/3L (unknown origin) at 1 to 10 uM incubated for 1 hrs by scintillation proximity assay; conditions: dose 1-10 µM
[29] = target: Histone-lysine N-methyltransferase SUV39H2 (Homo sapiens) (UniProt Q9H5I1); test: Inhibition of SUV39H2 (unknown origin) using Biotin-tagged H4K20me1 and [3H-SAM] as substrate at 1 to 10 uM incubated for 2 hrs by scintillation proximity assay; conditions: dose 1-10 µM
Sequence of Histone-lysine N-methyltransferase SUV39H2 (Homo sapiens) (Q9H5I1 whole entry): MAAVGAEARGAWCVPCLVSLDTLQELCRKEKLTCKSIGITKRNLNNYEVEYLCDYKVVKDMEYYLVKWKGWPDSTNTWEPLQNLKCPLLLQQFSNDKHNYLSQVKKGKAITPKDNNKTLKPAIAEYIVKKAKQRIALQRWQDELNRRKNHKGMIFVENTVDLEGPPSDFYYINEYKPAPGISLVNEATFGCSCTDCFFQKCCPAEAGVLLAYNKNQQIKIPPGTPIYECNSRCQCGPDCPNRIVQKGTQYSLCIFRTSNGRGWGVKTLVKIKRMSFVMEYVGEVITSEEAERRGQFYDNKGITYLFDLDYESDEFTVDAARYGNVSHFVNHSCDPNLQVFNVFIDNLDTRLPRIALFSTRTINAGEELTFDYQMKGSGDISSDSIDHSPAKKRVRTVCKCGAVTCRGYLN

HL-60 = test: Cytotoxicity against human HL-60 cells assessed as cell viability at 1.5 to 100 uM incubated after 72 hrs; assay type: functional, cell-based; conditions: dose 1.5-100 µM
[30] = target: Rho-associated protein kinase 1 (Homo sapiens) (UniProt Q13464); test: Inhibition of human ROCK1 at 10 uM relative to control
U2OS [31] = test: Inhibition of H4K20me2 in human U2OS cells assessed as change in methylation level at 10 uM incubated for 48 hrs by Western blotting analysis; assay type: functional, cell-based
Homo sapiens [32] = species on record: Homo sapiens; test: Inhibition of human Gastric receptor I at 10 uM relative to control
[33] = target: Neurotensin receptor type 1 (Homo sapiens) (UniProt P30989); test: Inhibition of human NTS1 at 10 uM relative to control

For `Clc1cc2c(NC3CCCC3)nnc(-c3ccncc3)c2cc1Cl`, the inhibition [1] was -7%, the inhibition [2] was “Active” and the Activity (U2OS [3]) was “Active”. For the same molecule, the inhibition [4] was 8%, the inhibition [5] was -8% and the Activity (MEF) was “Active”. For the same molecule, the inhibition [6] was “inactive”, the inhibition [7] was “inactive” and the Activity (LNCaP) was “Active”. For the same molecule, the inhibition [8] was -4%, the Activity (U2OS [9]) was “Active” and the inhibition [10] was 1%. For the same molecule, the inhibition [11] was -2%, the Activity (HeLa) was “Active” and the inhibition [12] was “inactive”. The inhibition [13] was -4%, the ΔTm [14] was 12.5 °C and the Activity (U2OS [15]) was “Active”. The Activity (U2OS [16]) was “Active”, the inhibition [17] was -4% and the inhibition [18] was “inactive”. The inhibition [19] was “inactive”, the inhibition [20] was -10% and the inhibition [21] was 7%. The inhibition [22] was 20%, the inhibition [23] was “inactive” and the inhibition (U2OS [24]) was “Active”. For the same molecule, the inhibition [25] was 0%, the inhibition (U2OS [26]) was “Active” and the inhibition [27] was 1%. The inhibition (Homo sapiens [28]) was “inactive”, the inhibition [29] was “inactive” and the Activity (HL-60) was “Active”. For the same molecule, the inhibition [30] was -1%.
With `O=C(c1nnc(NC2CCCC2)c2cc(Cl)c(Cl)cc12)N1CCC(O)CC1` the Activity (U2OS [31]) was “inactive”, the inhibition (Homo sapiens [32]) was -5% and the inhibition [33] was 3%.
